# Results: patent US20260250318A1, “COMPOSITIONS AND METHODS FOR CROSSING THE BLOOD BRAIN BARRIER” (VOYAGER THERAPEUTICS, INC., priority 2022, published 2026)
# Tested on: brain
# Experiment: Matured TTM-001 and TTM-002 variants, NGS enrichment in mouse brain
# Format: in vivo, mice
# Details: NGS fold-enrichment, brain of mice, relative to AAV9 control
row,Sequence,"Fold Enrichment relative to AAV9, Brain (Mouse)"
1,KNINGGGSPHSKAQNQQT,75.913 fold
2,KTINGSGSPHSKSQSQQI,64.027 fold
3,KTVNGSGSPHSKAQYQHT,54.158 fold
4,KTINGSGSPHSKGQNPPT,134.808 fold
5,KTVNGNGSPHSKAQNHQT,52.482 fold
6,KTINGNGSPHSKAQNPLT,53.583 fold
7,KTINGSGSPHSKAQSQQL,51.126 fold

# Same assay, conditions: NGS fold-enrichment, mouse brain, relative to AAV9 control
row,Sequence,"Fold Enrichment relative to AAV9, Brain (Mouse)"
1,KTINGSGSPHTKAQNPPT,34.425 fold
2,KNINGGGSPHSKAQNQQT,75.913 fold
3,KTINGNGSPHSKAQNPLT,53.583 fold

# Tested on: brains, heart, liver, muscle, and DRG of the NHPs
# Experiment: Maturation of TTM-001 and TTM-002 capsids, NGS enrichment in NHP tissues
# Format: in vivo
# Details: NGS fold-enrichment of RNA, NHP brain, relative to AAV9 control
# Outline: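 Variants carry mutations within and flanking the loop IV peptide insert: positions 450–466 were triplet-randomized, while positions 449–466 received low-frequency point mutations. The combined pool went into two NHPs, and each peptide was scored by NGS enrichment ratio against AAV9.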
row,Sequence,"Fold Enrichment relative to AAV9, Brain (NHP)"
1,KTINGSGSPHTKAQNPPT,147.061 fold
2,KNINGGGSPHSKAQNQQT,83.083 fold
3,KTINGNGSPHSKAQNPLT,75.269 fold

# Same assay, conditions: NGS fold-enrichment, DRG of NHPs, relative to AAV9 control
row,Sequence,"Fold Enrichment relative to AAV9, DRG (NHP)"
1,KNINGGGSPHSKAQNQQT,0.000 fold
2,KTINGSGSPHSKSQSQQI,0.000 fold
3,KTVNGSGSPHSKAQYQHT,0.000 fold
4,KTINGSGSPHSKGQNPPT,0.000 fold
5,KTVNGNGSPHSKAQNHQT,0.000 fold
6,KTINGNGSPHSKAQNPLT,0.000 fold
7,KTINGSGSPHSKAQSQQL,0.000 fold

# Same assay, conditions: NGS fold-enrichment, NHP DRG, relative to AAV9 control
row,Sequence,"Fold Enrichment relative to AAV9, DRG (NHP)"
1,KTINGSGSPHTKAQNPPT,0.000 fold
2,KNINGGGSPHSKAQNQQT,0.000 fold
3,KTINGNGSPHSKAQNPLT,0.000 fold

# Same assay, conditions: NGS fold-enrichment, NHP heart, relative to AAV9 control
row,Sequence,"Fold Enrichment relative to AAV9, Heart (NHP)"
1,KTINGSGSPHTKAQNPPT,0.727 fold
2,KNINGGGSPHSKAQNQQT,0.042 fold
3,KTINGNGSPHSKAQNPLT,0.000 fold

# Same assay, conditions: NGS fold-enrichment, NHP liver DNA, relative to AAV9 control
row,Sequence,"Fold Enrichment relative to AAV9, Liver DNA (NHP)"
1,KTINGSGSPHTKAQNPPT,0.000 fold
2,KNINGGGSPHSKAQNQQT,0.000 fold
3,KTINGNGSPHSKAQNPLT,0.000 fold

# Same assay, conditions: NGS fold-enrichment, NHP liver RNA, relative to AAV9 control
row,Sequence,"Fold Enrichment relative to AAV9, Liver RNA (NHP)"
1,KTINGSGSPHTKAQNPPT,0.000 fold
2,KNINGGGSPHSKAQNQQT,0.000 fold
3,KTINGNGSPHSKAQNPLT,0.366 fold

# Same assay, conditions: NGS fold-enrichment, NHP muscle, relative to AAV9 control
row,Sequence,"Fold Enrichment relative to AAV9, Muscle (NHP)"
1,KTINGSGSPHTKAQNPPT,0.000 fold
2,KNINGGGSPHSKAQNQQT,0.000 fold
3,KTINGNGSPHSKAQNPLT,0.000 fold

# Same assay, conditions: NGS fold-enrichment, RNA, brain of NHPs, relative to AAV9 control
row,Sequence,"Fold Enrichment relative to AAV9, Brain (NHP)"
1,KNINGGGSPHSKAQNQQT,83.083 fold
2,KTINGSGSPHSKSQSQQI,61.870 fold
3,KTVNGSGSPHSKAQYQHT,72.847 fold
4,KTINGSGSPHSKGQNPPT,72.339 fold
5,KTVNGNGSPHSKAQNHQT,68.889 fold
6,KTINGNGSPHSKAQNPLT,75.269 fold
7,KTINGSGSPHSKAQSQQL,70.539 fold

# Same assay, conditions: NGS fold-enrichment, heart of NHPs, relative to AAV9 control
row,Sequence,"Fold Enrichment relative to AAV9, Heart (NHP)"
1,KNINGGGSPHSKAQNQQT,0.042 fold
2,KTINGSGSPHSKSQSQQI,0.000 fold
3,KTVNGSGSPHSKAQYQHT,0.000 fold
4,KTINGSGSPHSKGQNPPT,0.206 fold
5,KTVNGNGSPHSKAQNHQT,0.000 fold
6,KTINGNGSPHSKAQNPLT,0.000 fold
7,KTINGSGSPHSKAQSQQL,0.000 fold

# Same assay, conditions: NGS fold-enrichment, liver DNA of NHPs, relative to AAV9 control
row,Sequence,"Fold Enrichment relative to AAV9, Liver DNA (NHP)"
1,KNINGGGSPHSKAQNQQT,0.000 fold
2,KTINGSGSPHSKSQSQQI,0.175 fold
3,KTVNGSGSPHSKAQYQHT,0.130 fold
4,KTINGSGSPHSKGQNPPT,0.041 fold
5,KTVNGNGSPHSKAQNHQT,0.030 fold
6,KTINGNGSPHSKAQNPLT,0.000 fold
7,KTINGSGSPHSKAQSQQL,0.041 fold

# Same assay, conditions: NGS fold-enrichment, liver RNA of NHPs, relative to AAV9 control
row,Sequence,"Fold Enrichment relative to AAV9, Liver RNA (NHP)"
1,KNINGGGSPHSKAQNQQT,0.000 fold
2,KTINGSGSPHSKSQSQQI,0.200 fold
3,KTVNGSGSPHSKAQYQHT,0.000 fold
4,KTINGSGSPHSKGQNPPT,0.000 fold
5,KTVNGNGSPHSKAQNHQT,0.000 fold
6,KTINGNGSPHSKAQNPLT,0.366 fold
7,KTINGSGSPHSKAQSQQL,0.000 fold

# Same assay, conditions: NGS fold-enrichment, muscle of NHPs, relative to AAV9 control
row,Sequence,"Fold Enrichment relative to AAV9, Muscle (NHP)"
1,KNINGGGSPHSKAQNQQT,0.000 fold
2,KTINGSGSPHSKSQSQQI,0.000 fold
3,KTVNGSGSPHSKAQYQHT,0.000 fold
4,KTINGSGSPHSKGQNPPT,0.000 fold
5,KTVNGNGSPHSKAQNHQT,0.000 fold
6,KTINGNGSPHSKAQNPLT,0.000 fold
7,KTINGSGSPHSKAQSQQL,0.000 fold
